± gives the expanded uncertainty stated by the source.
Test: molar heat capacity at constant volume; xn = mol fraction of the nth substance listed
Conditions: x1 = 0.095

Structure (SMILES): CCCCCCCCCC [decane] + O=C=O
- molar heat capacity at constant volume (339.76 K, Fluid (supercritical or subcritical phases), Mass density=658.8 kg/m3, Isochoric Heat Capacity Apparatus): 341.25 ± 6.8 J/K/mol
- molar heat capacity at constant volume (339.76 K, Liquid, iso): 405.37 ± 8.1 J/K/mol
- molar heat capacity at constant volume (339.81 K, Fluid (supercritical or subcritical phases), Mass density=658.8 kg/m3, Isochoric Heat Capacity Apparatus): 339.06 ± 6.8 J/K/mol
- molar heat capacity at constant volume (340.21 K, Fluid (supercritical or subcritical phases), Mass density=658.8 kg/m3, Isochoric Heat Capacity Apparatus): 339.7 ± 6.8 J/K/mol
- molar heat capacity at constant volume (340.44 K, Fluid (supercritical or subcritical phases), Mass density=658.8 kg/m3, Isochoric Heat Capacity Apparatus): 339.06 ± 6.8 J/K/mol
- molar heat capacity at constant volume (341.36 K, Fluid (supercritical or subcritical phases), Mass density=658.8 kg/m3, Isochoric Heat Capacity Apparatus): 337.04 ± 6.7 J/K/mol
- molar heat capacity at constant volume (342.32 K, Fluid (supercritical or subcritical phases), Mass density=658.8 kg/m3, Isochoric Heat Capacity Apparatus): 337.68 ± 6.8 J/K/mol
- molar heat capacity at constant volume (348.73 K, Fluid (supercritical or subcritical phases), Mass density=658.8 kg/m3, Isochoric Heat Capacity Apparatus): 325.41 ± 6.5 J/K/mol
- molar heat capacity at constant volume (352.09 K, Fluid (supercritical or subcritical phases), Mass density=622.7 kg/m3, Isochoric Heat Capacity Apparatus): 341.73 ± 6.8 J/K/mol
- molar heat capacity at constant volume (352.09 K, Liquid, iso): 393.1 ± 7.8 J/K/mol
- molar heat capacity at constant volume (352.5 K, Fluid (supercritical or subcritical phases), Mass density=622.7 kg/m3, Isochoric Heat Capacity Apparatus): 340.82 ± 6.8 J/K/mol
- molar heat capacity at constant volume (352.9 K, Fluid (supercritical or subcritical phases), Mass density=622.7 kg/m3, Isochoric Heat Capacity Apparatus): 339.06 ± 6.8 J/K/mol
- molar heat capacity at constant volume (354.63 K, Fluid (supercritical or subcritical phases), Mass density=622.7 kg/m3, Isochoric Heat Capacity Apparatus): 337.04 ± 6.7 J/K/mol
- molar heat capacity at constant volume (362.18 K, Fluid (supercritical or subcritical phases), Mass density=658.8 kg/m3, Isochoric Heat Capacity Apparatus): 313.14 ± 6.2 J/K/mol
- molar heat capacity at constant volume (364 K, Fluid (supercritical or subcritical phases), Mass density=622.7 kg/m3, Isochoric Heat Capacity Apparatus): 323.65 ± 6.5 J/K/mol
- molar heat capacity at constant volume (368.53 K, Fluid (supercritical or subcritical phases), Mass density=574.1 kg/m3, Isochoric Heat Capacity Apparatus): 365.42 ± 7.3 J/K/mol
- molar heat capacity at constant volume (368.53 K, Liquid, iso): 393.1 ± 7.8 J/K/mol
- molar heat capacity at constant volume (368.83 K, Fluid (supercritical or subcritical phases), Mass density=574.1 kg/m3, Isochoric Heat Capacity Apparatus): 364.08 ± 7.3 J/K/mol
- molar heat capacity at constant volume (369.77 K, Fluid (supercritical or subcritical phases), Mass density=574.1 kg/m3, Isochoric Heat Capacity Apparatus): 359.39 ± 7.2 J/K/mol
- molar heat capacity at constant volume (371.23 K, Fluid (supercritical or subcritical phases), Mass density=658.8 kg/m3, Isochoric Heat Capacity Apparatus): 303.75 ± 6.1 J/K/mol
- molar heat capacity at constant volume (380.81 K, Fluid (supercritical or subcritical phases), Mass density=622.7 kg/m3, Isochoric Heat Capacity Apparatus): 305.78 ± 6.1 J/K/mol
- molar heat capacity at constant volume (383.81 K, Fluid (supercritical or subcritical phases), Mass density=534.8 kg/m3, Isochoric Heat Capacity Apparatus): 350.91 ± 7 J/K/mol
- molar heat capacity at constant volume (384.11 K, Fluid (supercritical or subcritical phases), Mass density=534.8 kg/m3, Isochoric Heat Capacity Apparatus): 347.55 ± 6.9 J/K/mol
- molar heat capacity at constant volume (385.02 K, Fluid (supercritical or subcritical phases), Mass density=574.1 kg/m3, Isochoric Heat Capacity Apparatus): 318.95 ± 6.4 J/K/mol
- molar heat capacity at constant volume (385.79 K, Fluid (supercritical or subcritical phases), Mass density=534.8 kg/m3, Isochoric Heat Capacity Apparatus): 348.67 ± 7 J/K/mol
- molar heat capacity at constant volume (387.65 K, Fluid (supercritical or subcritical phases), Mass density=534.8 kg/m3, Isochoric Heat Capacity Apparatus): 339.49 ± 6.8 J/K/mol
- molar heat capacity at constant volume (393.22 K, Fluid (supercritical or subcritical phases), Mass density=509.4 kg/m3, Isochoric Heat Capacity Apparatus): 349.31 ± 7 J/K/mol
- molar heat capacity at constant volume (393.66 K, Fluid (supercritical or subcritical phases), Mass density=622.7 kg/m3, Isochoric Heat Capacity Apparatus): 307.11 ± 6.1 J/K/mol
- molar heat capacity at constant volume (394.42 K, Fluid (supercritical or subcritical phases), Mass density=509.4 kg/m3, Isochoric Heat Capacity Apparatus): 339.06 ± 6.8 J/K/mol
- molar heat capacity at constant volume (395.94 K, Fluid (supercritical or subcritical phases), Mass density=509.4 kg/m3, Isochoric Heat Capacity Apparatus): 340.82 ± 6.8 J/K/mol
- molar heat capacity at constant volume (397.67 K, Fluid (supercritical or subcritical phases), Mass density=498 kg/m3, Isochoric Heat Capacity Apparatus): 351.12 ± 7 J/K/mol
- molar heat capacity at constant volume (397.78 K, Fluid (supercritical or subcritical phases), Mass density=574.1 kg/m3, Isochoric Heat Capacity Apparatus): 312.23 ± 6.2 J/K/mol
- molar heat capacity at constant volume (398.32 K, Fluid (supercritical or subcritical phases), Mass density=498 kg/m3, Isochoric Heat Capacity Apparatus): 353.09 ± 7 J/K/mol
- molar heat capacity at constant volume (399.4 K, Fluid (supercritical or subcritical phases), Mass density=498 kg/m3, Isochoric Heat Capacity Apparatus): 343.97 ± 6.9 J/K/mol
- molar heat capacity at constant volume (401.33 K, Fluid (supercritical or subcritical phases), Mass density=534.8 kg/m3, Isochoric Heat Capacity Apparatus): 323.65 ± 6.5 J/K/mol
- molar heat capacity at constant volume (403.37 K, Fluid (supercritical or subcritical phases), Mass density=574.1 kg/m3, Isochoric Heat Capacity Apparatus): 314.26 ± 6.3 J/K/mol
- molar heat capacity at constant volume (404.76 K, Fluid (supercritical or subcritical phases), Mass density=509.4 kg/m3, Isochoric Heat Capacity Apparatus): 325.19 ± 6.5 J/K/mol
- molar heat capacity at constant volume (404.98 K, Fluid (supercritical or subcritical phases), Mass density=477.6 kg/m3, Isochoric Heat Capacity Apparatus): 347.33 ± 6.9 J/K/mol
- molar heat capacity at constant volume (405.41 K, Fluid (supercritical or subcritical phases), Mass density=477.6 kg/m3, Isochoric Heat Capacity Apparatus): 344.18 ± 6.9 J/K/mol
- molar heat capacity at constant volume (406.9 K, Fluid (supercritical or subcritical phases), Mass density=534.8 kg/m3, Isochoric Heat Capacity Apparatus): 319.59 ± 6.4 J/K/mol
- molar heat capacity at constant volume (407.33 K, Fluid (supercritical or subcritical phases), Mass density=477.6 kg/m3, Isochoric Heat Capacity Apparatus): 339.28 ± 6.8 J/K/mol
- molar heat capacity at constant volume (410.31 K, Fluid (supercritical or subcritical phases), Mass density=509.4 kg/m3, Isochoric Heat Capacity Apparatus): 327.43 ± 6.6 J/K/mol
- molar heat capacity at constant volume (410.94 K, Fluid (supercritical or subcritical phases), Mass density=498 kg/m3, Isochoric Heat Capacity Apparatus): 327.01 ± 6.6 J/K/mol
- molar heat capacity at constant volume (411.47 K, Fluid (supercritical or subcritical phases), Mass density=574.1 kg/m3, Isochoric Heat Capacity Apparatus): 311.32 ± 6.2 J/K/mol
- molar heat capacity at constant volume (416.01 K, Fluid (supercritical or subcritical phases), Mass density=477.6 kg/m3, Isochoric Heat Capacity Apparatus): 330.31 ± 6.6 J/K/mol
- molar heat capacity at constant volume (416.64 K, Fluid (supercritical or subcritical phases), Mass density=509.4 kg/m3, Isochoric Heat Capacity Apparatus): 321.62 ± 6.5 J/K/mol
- molar heat capacity at constant volume (422.51 K, Fluid (supercritical or subcritical phases), Mass density=498 kg/m3, Isochoric Heat Capacity Apparatus): 321.62 ± 6.5 J/K/mol
- molar heat capacity at constant volume (423.55 K, Fluid (supercritical or subcritical phases), Mass density=509.4 kg/m3, Isochoric Heat Capacity Apparatus): 319.59 ± 6.4 J/K/mol
- molar heat capacity at constant volume (428.94 K, Fluid (supercritical or subcritical phases), Mass density=477.6 kg/m3, Isochoric Heat Capacity Apparatus): 321.41 ± 6.5 J/K/mol
- molar heat capacity at constant volume (432.24 K, Fluid (supercritical or subcritical phases), Mass density=509.4 kg/m3, Isochoric Heat Capacity Apparatus): 320.07 ± 6.4 J/K/mol
- molar heat capacity at constant volume (434.61 K, Fluid (supercritical or subcritical phases), Mass density=398.3 kg/m3, Isochoric Heat Capacity Apparatus): 344.61 ± 6.9 J/K/mol
- molar heat capacity at constant volume (434.91 K, Fluid (supercritical or subcritical phases), Mass density=398.3 kg/m3, Isochoric Heat Capacity Apparatus): 342.64 ± 6.8 J/K/mol
- molar heat capacity at constant volume (436.96 K, Fluid (supercritical or subcritical phases), Mass density=398.3 kg/m3, Isochoric Heat Capacity Apparatus): 343.06 ± 6.9 J/K/mol
- molar heat capacity at constant volume (437.68 K, Fluid (supercritical or subcritical phases), Mass density=498 kg/m3, Isochoric Heat Capacity Apparatus): 321.19 ± 6.4 J/K/mol
- molar heat capacity at constant volume (438.19 K, Fluid (supercritical or subcritical phases), Mass density=509.4 kg/m3, Isochoric Heat Capacity Apparatus): 318.05 ± 6.3 J/K/mol
- molar heat capacity at constant volume (440.43 K, Fluid (supercritical or subcritical phases), Mass density=534.8 kg/m3, Isochoric Heat Capacity Apparatus): 316.28 ± 6.3 J/K/mol
- molar heat capacity at constant volume (442.03 K, Fluid (supercritical or subcritical phases), Mass density=534.8 kg/m3, Isochoric Heat Capacity Apparatus): 316.5 ± 6.3 J/K/mol
- molar heat capacity at constant volume (442.05 K, Fluid (supercritical or subcritical phases), Mass density=498 kg/m3, Isochoric Heat Capacity Apparatus): 321.19 ± 6.4 J/K/mol
- molar heat capacity at constant volume (442.66 K, Fluid (supercritical or subcritical phases), Mass density=477.6 kg/m3, Isochoric Heat Capacity Apparatus): 322.31 ± 6.5 J/K/mol
- molar heat capacity at constant volume (442.88 K, Fluid (supercritical or subcritical phases), Mass density=498 kg/m3, Isochoric Heat Capacity Apparatus): 321.19 ± 6.4 J/K/mol

From the NIST ThermoML archive (doi:10.1007/s10765-006-0056-z)
